The record followed here is patent US8513462B2, “Pesticides and uses thereof” (Dow AgroSciences LLC, priority 2007, dated 2013).

The experiment relates to green peach aphid (Myzus persicae). In words: Insecticidal test for green peach aphid in foliar spray assay. In kind it is in vivo. The settings on record: 72 h, foliar spray on cabbage, Corrected % Control (Abbott) after three days, read-out: Rating against green peach aphid on cabbage (foliar spray). On the procedure:
Squash seedlings with fully expanded cotyledon leaves were trimmed to one cotyledon per plant and infested with cotton aphid (wingless adults and nymphs) 1 day prior to chemical application. Each plant was examined before chemical application to ensure uniform infestation (ca. 30-70 aphids per plant). Compounds (2 mg) were dissolved in 2 ml of acetone:methanol (1:1) solvent, forming stock solutions of 1000 ppm. The stock solutions were diluted 5× with 0.025% Tween 20 in H2O to obtain a solution at 200 ppm. A hand-held Devilbiss aspirator type sprayer was used to apply the spray solutions until runoff to both sides of the squash cotyledon leaves. Four plants (4 replications) were used for each compound. Reference plants (solvent check) were sprayed with the diluent only. Treated plants were held in a holding room for 3 days at approximately 23° C. and 40% RH before the number of live aphids on each plant was recorded. Insecticidal activity was measured by Corrected % Control using Abbott's correction formula and presented in Table 1-Activity: Corrected % Control=100*(X−Y)/X • where X=No. of live aphids on solvent check plants • Y=No. of live aphids on treated plants Results are shown in Table 7. Insecticidal Test for Green Peach Aphid (Myzus persicae) in Foliar Spray Assay Cabbage seedlings grown in 3-inch pots, with 2-3 small (3-5 cm) true leaves, were used as test substrate. The seedlings were infested with 20-50 green peach aphids (wingless adult and nymph) 1-2 days prior to chemical application. Four seedlings were used for each treatment. Compounds (2 mg) were dissolved in 2 ml of acetone:methanol (1:1) solvent, forming stock solutions of 1000 ppm. The stock solutions were diluted 5× with 0.025% Tween 20 in H2O to obtain a solution at 200 ppm. A hand-held Devilbiss aspirator sprayer was used for spraying a solution to both sides of cabbage leaves until runoff. Reference plants (solvent check) were sprayed with the diluent only. Treated plants were held in a holding room for three days at approximately 23° C. and 40% RH prior to grading. Evaluation was conducted by counting the number of live aphids per plant under a microscope. Insecticidal activity was measured by using Abbott's correction formula: Corrected % Control=100*(X−Y)/X • where X=No. of live aphids on solvent check plants • Y=No. of live aphids on treated plants
As for `CC(c1ccc(C(F)(F)F)nc1)S(C)(=O)=Nc1ncc(Cc2ccccc2)s1` (racemic) [Compound 61, 5-{1-[(5-benzyl-1,3-thiazol-2-yl)(methyl)sulfonimidoyl]ethyl}-2-(trifluoromethyl)pyridine], the pest or weed control at 200 ppm is 80 to 100%. The result for `CC(c1ccc(C(F)(F)F)nc1)S(C)(=O)=Nc1nc2c(s1)CCc1nonc1-2` (racemic) [Compound 65, 7-[(methyl(oxo){1-[6-(trifluoromethyl)-3-pyridinyl]ethyl}-λ^6-sulfanylidene)amino]-4,5-dihydro[1,3]thiazolo[4,5-e][2,1,3]-benzoxadiazole] reads 80 to 100%; that for `CC(c1ccc(C(F)(F)F)nc1)S(C)(=O)=Nc1nnc(C(F)F)s1` (racemic) [Compound 69, 5-{1-[[5-(difluoromethyl)-1,3,4-thiadiazol-2-yl](methyl)sulfonimidoyl]ethyl}-2-(trifluoromethyl)pyridine], 80 to 100%. Turning to `CC(c1ccc(C(F)(F)F)nc1)S(C)(=O)=Nc1cc(F)ccn1` (stereo not drawn) [Compound 3, 3-[1-ethyl(N-(2-(4-fluoro)pyridine)-sulfoximinyl)(methyl)]-6-trifluoromethylpyridine], the pest or weed control at 200 ppm lay in the range of 80 to 100%. For the molecule `CC(c1ccc(C(F)(F)F)nc1)S(C)(=O)=Nc1ncccc1F` (stereo not drawn) [Compound 9], the pest or weed control at 200 ppm lay within 80 to 100%.

As to `CC(c1ccc(C(F)(F)F)nc1)S(C)(=O)=Nc1cccc(F)n1` (stereo not drawn) [Compound 10], the pest or weed control at 200 ppm was under 80%. For the molecule `CC(c1ccc(C(F)(F)F)nc1)S(C)(=O)=Nc1cccc(C(F)(F)F)n1` (stereo not drawn) [Compound 11], the pest or weed control at 200 ppm is under 80%. On to `Cc1csc(N=S(C)(=O)C(C)c2ccc(C(F)(F)F)nc2)n1` (stereo not drawn) [Compound 14], for which the pest or weed control at 200 ppm was under 80%.

Turning to `CC(c1ccc(C(F)(F)F)nc1)S(C)(=O)=Nc1ncc(C#N)s1` (stereo not drawn) [Compound 16], the pest or weed control at 200 ppm fell in the range of 80 to 100%. In the case of `CC(c1ccc(C(F)(F)F)nc1)S(C)(=O)=Nc1ccsc1[N+](=O)[O-]` (stereo not drawn) [Compound 17] it was under 80%; in that of `CCOC(=O)c1csc(N=S(C)(=O)C(C)c2ccc(C(F)(F)F)nc2)n1` (stereo not drawn) [Compound 18], 80 to 100%.

Take `Cc1ccc(-c2csc(N=S(C)(=O)C(C)c3ccc(C(F)(F)F)nc3)n2)cc1` (stereo not drawn) [Compound 19, 5-{1-[methyl(4-(4-methylphenyl)-1,3-thiazol-2-yl)sulfonimidoyl]ethyl}-2-(trifluoromethyl)pyridine]: the pest or weed control at 200 ppm fell in the range of 80 to 100%. For the molecule `CC(c1ccc(C(F)(F)F)nc1)S(C)(=O)=Nc1nc(-c2ccc(Cl)c(Cl)c2)cs1` (stereo not drawn) [Compound 20], the pest or weed control at 200 ppm lay within 80 to 100%. In the case of `CC(c1ccc(C(F)(F)F)nc1)S(C)(=O)=Nc1nc(-c2cccc(Cl)c2)cs1` (stereo not drawn) [Compound 21] it was 80 to 100%; in that of `CC(c1ccc(C(F)(F)F)nc1)S(C)(=O)=Nc1nc(-c2ccc(Cl)cc2)cs1` (stereo not drawn) [Compound 22], 80 to 100%. Take `COc1ccc(-c2csc(N=S(C)(=O)C(C)c3ccc(C(F)(F)F)nc3)n2)cc1` (stereo not drawn) [Compound 23]: the pest or weed control at 200 ppm is 80 to 100%. As for `CC(c1ccc(C(F)(F)F)nc1)S(C)(=O)=Nc1nc2ccccc2s1` (stereo not drawn) [Compound 25, 3-[1-ethyl(N-(2-benzothiazole)-sulfoximinyl)(methyl)]-6-trifluoromethylpyridine], the pest or weed control at 200 ppm is under 80%. In the case of `CC(c1ccc(C(F)(F)F)nc1)S(C)(=O)=Nc1nc(C(F)(F)F)cs1` (stereo not drawn) [Compound 26, 3-[1-ethyl(N-(2-(4-trifluoromethyl)thiazole)-sulfoximinyl)(methyl)]-6-trifluoromethylpyridine] it was 80 to 100%; in that of `CCc1csc(N=S(C)(=O)C(C)c2ccc(C(F)(F)F)nc2)n1` (stereo not drawn) [Compound 28], 80 to 100%. The result for `CCOC(C)(C)c1csc(N=S(C)(=O)C(C)c2ccc(C(F)(F)F)nc2)n1` (stereo not drawn) [Compound 31] reads 80 to 100%; that for `CC(c1ccc(C(F)(F)F)nc1)S(C)(=O)=Nc1nc(-c2ccncc2)cs1` (stereo not drawn) [Compound 34], 80 to 100%.
